Converted amounts (≈) assume the structure as drawn. The source made the active and inactive calls. The rule behind the calls is not given here.
Columns and labels:
[1] = Antitumor activity against human 9KB cells; type: functional, cell-based
Pseudomonas aeruginosa = experiment: Antimicrobial activity against Pseudomonas aeruginosa at 100 ug; type: functional, organism-based
Escherichia coli = experiment: Antimicrobial activity against Escherichia coli at 100 ug; type: functional, organism-based

IC50 [1]: 22 µg/mL (≈ 60.7 µM)
SMILES: C=C1CC[C@@H]([C@@]2(C)CC[C@H](C(C)(C)OC(C)=O)O2)[C@@H](O)[C@H]2C(C)=CC[C@@H]12 [DICTYOL H]
Activity (Pseudomonas aeruginosa): inactive
Activity (Escherichia coli): inactive
